This is an account of results in the NIST ThermoML archive (doi:10.1021/acs.jced.9b00854).

Numbers after ± are expanded uncertainties.

The conditions of series [1]: Crystal.
A short description of series [2]: Molar enthalpy of transition or fusion. The following applies: Crystal; DSC.

What is called mass density is the mass of a sample divided by its volume.

Consider `CCNC(=S)NCC` [N,N'-diethylthiourea], for which the mass density in series [1] (293 K, 101.33 kPa, X-ray diffraction) came out at 1120 ± 5.8 kg/m3. In addition, in series [1] (DSC), the Triple point temperature amounted to 351.28 ± 0.87 K. The “Molar enthalpy of transition or fusion” value in series [2] came to 3.75 ± 0.206 kcal/mol.
